Patent US11389446B2, “Theranostic agents” (THE HONG KONG UNIVERSITY OF SCIENCE AND TECHNOLOGY, priority 2017, dated 2022)

Key:
Assay type in all cases: physicochemical
[1] = Photostability under continuous 808 nm laser irradiation; conditions: PBS pH 7.4, 808 nm laser 0.8 W/cm^2, 15 min
Experimental: (§1) For the photostability study, PBS solutions (pH 7.4) of TPA-T-TQ ONPs and ICG were irradiated under 808-nm laser (0.8 W/cm^2), and the absorption spectra were measured at different time points. For the anti-photobleaching study, the temperatures of the sample solutions were recorded during five circles of heating and cooling. In one heating-cooling circle, the NIR laser first irradiated the samples for 5 min to reach a steady state, then the laser was removed and the samples were naturally cooled down to ambient temperature in 6 min.
(§2) For the RONS-stability study, two kinds of RONS were used, i.e., ONOO^− and .OH, which were prepared according to the literature. The absorption and photoluminescence spectra were recorded before and after addition of 0.4 mM of RONS. […] Then the photostability of TPA-T-TQ ONPs was evaluated along with ICG under continuous 808 nm laser irradiation (0.8 W/cm^2) by recording the apparent colors and absorption spectra after laser irradiation for different times. […]
(§3) Then, the anti-photobleaching properties of TPA-T-TQ ONPs and ICG were evaluated by alternative heating and cooling processes (the NIR laser first irradiated the samples for 5 min to heat them up, then the laser was removed, and the samples were naturally cooled down to ambient temperature in 6 min).

[2] = Anti-photobleaching study, five circles of heating-cooling; conditions: 100 μM, 808 nm 0.8 W/cm^2
Experimental: as §1, §3

[3] = RONS-stability study; conditions: PBS, ICG read at 780 nm
Experimental: For the RONS-stability study, two kinds of RONS were used, i.e., ONOO^− and .OH, which were prepared according to the literature. The absorption and photoluminescence spectra were recorded before and after addition of 0.4 mM of RONS. The stabilities of the contrast agents in terms of thermal and photothermal stabilities as well as photobleaching and RONS resistances are crucial for PAI/PTT applications in vivo because incorrect or misleading signals, weakened therapeutic efficacy, and harmful side effects can result if the structure of the agent is destroyed, especially in living systems. Thermogravimetric analysis (TGA) was first carried out to measure the thermal stability of TPA-T-TQ. The decomposition temperature for 5% weight loss of TPA-T-TQ was above 400° C. […] Then the photostability of TPA-T-TQ ONPs was evaluated along with ICG under continuous 808 nm laser irradiation (0.8 W/cm^2) by recording the apparent colors and absorption spectra after laser irradiation for different times. […]
Another important issue related to in vivo applications is the physiological stability against highly reactive molecules such as RONS. […] Therefore, the stability of TPA-T-TQ ONPs and ICG in the presence of two kinds of RONS, peroxynitrite (ONOO^−) and hydroxyl radical (.OH), were measured under physiological conditions. […]

[4] = Photothermal performance in PBS under 808 nm laser; conditions: PBS pH 7.4, 100 μM, 808 nm laser 0.8 W/cm^2, 5 min
Experimental: The PBS solution (pH 7.4) of TPA-T-TQ ONPs and ICG in different concentrations were continuously exposed to NIR laser of 808 nm with a power intensity of 0.8 W/cm^2 for 5 min. The temperature was measured every 20 s and stopped until the temperature nearly reached a plateau. The corresponding IR thermal images were also recorded. To evaluate the photothermal conversion property, we quantitatively measured the temperature change of TPA-T-TQ ONP solution at different concentrations as a function of 808 nm laser (0.8 W/cm^2) irradiation time. As depicted in FIG. 9B, temperature increases very fast initially, and reaches a plateau after 3 min laser irradiation. It is noted that the eventual temperature at the plateau depends on the ONP concentration. The temperature increase of ONPs and ICG solutions upon exposure to 808 nm laser irradiation was compared. […] The difference in temperature elevation of the two samples at various irradiation times can be intuitively visualized from the infrared (IR) thermal images (FIG. 9A).

[5] = Thermogravimetric analysis (TGA), thermal stability; conditions: heating rate 10° C./min, nitrogen atmosphere
Experimental: ^1H (400 MHz) and ^13C (100 MHz) nuclear magnetic resonance (NMR) spectra were recorded on a Bruker AV 400 spectrometer by using CDCl3 or DMSO-d6 as the solvent. High-resolution mass spectra (HRMS) were measured on a GCT premier CAB048 mass spectrometer in MALDI-TOF mode. Thermogravimetric analysis (TGA) measurement was conducted on a TA TGA Q5000 with a heating rate of 10° C./min under nitrogen atmosphere. The UV-vis-NIR absorption spectra were performed on a PerkinElmer Lambda 365 spectrophotometer. The photoluminescence (PL) spectra were conducted using a Horiba Fluorolog-3 spectrofluorometer. Dynamic light scattering (DLS) was performed on a 90 plus particle size analyzer. Transmission electron microscopy (TEM) images were obtained on a JEM-2010F transmission electron microscope with an accelerating voltage of 200 kV.
as §2

[6] = after two circles of heating-cooling

## CC1(C)C(/C=C/C=C/C=C/C=C2\N(CCCCS(=O)(=O)O)c3ccc4ccccc4c3C2(C)C)=[N+](CCCCS(=O)(=O)[O-])c2ccc3ccccc3c21 [ICG, indocyanine green]
[1]
  colors and absorption spectra / maximal absorption intensity after NIR light irradiation: nearly drops to zero
[2]; [6]
  temperature elevation relative to the original value: about 20%
  temperature elevation ΔT after two circles: ~10 °C
[2]; first heating
  temperature elevation ΔT, original value: ~44 °C
[3]; 400 μM .OH for 1 min
  maximal absorption intensity relative to the original value after .OH: ~4%
[3]; 400 μM ONOO^− for 1 min
  maximal absorption intensity relative to the original value after ONOO^−: about 60%
[4]
  temperature increase ΔT in 5 min: ~43 °C

## Cc1ccc(N(c2ccc(-c3ccc(-c4c5nsnc5c(-c5ccc(-c6ccc(N(c7ccc(C)cc7)c7ccc(C(C)(C)C)cc7)cc6)s5)c5nc(-c6ccccc6)c(-c6ccccc6)nc45)s3)cc2)c2ccc(C(C)(C)C)cc2)cc1 [TPA-T-TQ, 4,4′-((6,7-Diphenyl-[1,2,5]thiadiazolo[3,4-g]quinoxaline-4,9-diyl)bis(thiophene-5,2-diyl))bis(N-(4-(tert-butyl)phenyl)-N-(p-tolyl)aniline)]
[5]
  decomposition temperature for 5% weight loss: above 400 °C
